Experimental data published in patent US12162858B2, “Quinoline derivatives as inhibitors of AXL/MER RTK and CSF1R” (QURIENT CO., LTD., priority 2018, dated 2024).
Read-outs that look alike come from different tables or passages of the source.

Tests used:
Mer = target: T1, Mer (Homo sapiens, UniProt Q12866); assay: LanthaScreen Eu kinase binding assay for Mer; conditions: read-out: Mer kinase binding activity (Kd)
T1 construct: purchased Life Technologies
T1 sequence (Q12866 21-999): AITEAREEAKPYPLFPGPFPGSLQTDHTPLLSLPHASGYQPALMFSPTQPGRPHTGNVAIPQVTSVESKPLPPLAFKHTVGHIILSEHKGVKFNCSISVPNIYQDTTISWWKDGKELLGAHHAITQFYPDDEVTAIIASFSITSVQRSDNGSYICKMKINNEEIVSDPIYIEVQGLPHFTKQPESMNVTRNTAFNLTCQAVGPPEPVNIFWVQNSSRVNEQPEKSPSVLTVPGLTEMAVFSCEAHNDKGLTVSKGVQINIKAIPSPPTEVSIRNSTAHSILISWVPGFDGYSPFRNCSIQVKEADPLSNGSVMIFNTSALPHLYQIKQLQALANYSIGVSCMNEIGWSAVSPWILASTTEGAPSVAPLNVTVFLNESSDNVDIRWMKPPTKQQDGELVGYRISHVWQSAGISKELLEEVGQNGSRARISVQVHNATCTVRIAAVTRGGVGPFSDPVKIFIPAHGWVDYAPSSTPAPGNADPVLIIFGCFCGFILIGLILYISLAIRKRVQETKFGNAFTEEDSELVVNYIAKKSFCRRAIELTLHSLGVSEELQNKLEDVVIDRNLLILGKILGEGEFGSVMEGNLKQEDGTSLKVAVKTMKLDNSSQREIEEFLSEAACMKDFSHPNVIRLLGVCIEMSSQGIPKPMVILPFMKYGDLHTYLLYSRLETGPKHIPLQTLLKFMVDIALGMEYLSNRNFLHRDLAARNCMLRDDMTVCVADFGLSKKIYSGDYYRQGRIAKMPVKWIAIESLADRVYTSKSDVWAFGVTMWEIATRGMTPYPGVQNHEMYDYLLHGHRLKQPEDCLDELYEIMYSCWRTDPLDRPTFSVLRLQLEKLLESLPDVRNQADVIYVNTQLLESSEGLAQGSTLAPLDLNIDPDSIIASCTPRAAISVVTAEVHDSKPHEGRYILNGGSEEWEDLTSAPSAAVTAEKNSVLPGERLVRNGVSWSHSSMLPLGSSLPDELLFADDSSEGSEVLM
Experimental: LanthaScreen® Eu Kinase Binding assays were conducted at Life Technologies using the manufacturer's specifications for each kinase indicated.
Briefly, the principle behind this assay is based upon the binding and displacement of an Alexa Fluor 647-labeled tracer to the kinase of interest. Binding of the tracer to the kinase is detected using an EU-labeled anti-tag antibody. Simultaneous binding of both the tracer and antibody to the kinase gives rise to a FRET-signal. Binding of an inhibitor to the kinase competes for binding with the tracer, resulting in a loss of FRET-signal.
A given compound was diluted in DMSO to make a stock compound solution. The stock compound solution was serially diluted over eight steps in DMSO. Each diluted compound solution in DMSO was diluted in kinase buffer. Afterwards four kinds of working solution were prepared. First, Tracer-Working solution consists of Tracer 236 and Kinase Buffer. Second, Axl, Mer, Tyro3 or Met/anti-GST-AB-Working solution contained one of the kinases Axl, and Mer or anti-GST-AB (=anti glutathione-S-transferase antibody) in Kinase Buffer. Third, anti-GST-AB-Working solution was made with anti-GST-AB and Kinase Buffer. Last, in the DMSO-Working solution DMSO was added to Kinase Buffer to a final concentration to 3%. Each of the four kinds of working solutions were separately added to the assay plate and then incubated for 1 h at room temperature. After incubation, the assay plate was measured with respect to the FRET-Signal with the EnVision (Perkin Elmer) using the program LanthaHTRF-Assay. Data evaluation was done in the Quattro Workflow software. Kd (the equilibrium dissociation constant) values were calculated relative to vehicle (DMSO) control wells.

CSF1R = CSF1R (Homo sapiens, UniProt P07333); assay: KINOMEscan competition binding assay for CSF1R; parameters: DNA tag for qPCR (not a peptide); host or cells: E. coli/T7 phage or HEK-293; conditions: for Kd: read-out: CSF1R kinase binding activity (Kd)
Experimental: KINOMEscan™ is based on a competition binding assay that quantitatively measures the ability of a compound to compete with an immobilized, active-site directed ligand. The assay is performed by combining three components: DNA-tagged kinase; immobilized ligand; and a test compound. The ability of the test compound to compete with the immobilized ligand is measured via quantitative PCR of the DNA tag.
E. coli were grown to log-phase and infected with T7 phage and incubated with shaking at 32° C. until lysis. The lysates were centrifuged and filtered to remove cell debris. The remaining kinases were produced in HEK-293 cells and subsequently tagged with DNA for qPCR detection. Streptavidin-coated magnetic beads were treated with biotinylated small molecule ligands for 30 minutes at room temperature to generate affinity resins for kinase assays. The liganded beads were blocked with excess biotin and washed with blocking buffer (SeaBlock (Pierce), 1% BSA, 0.05% Tween 20, 1 mM DTT) to remove unbound ligand and to reduce non-specific binding. Binding reactions were assembled by combining kinases, liganded affinity beads, and test compounds in 1× binding buffer (20% SeaBlock, 0.17×PBS, 0.05% Tween 20, 6 mM DTT). Test compounds were prepared as 111× stocks in 100% DMSO. Kds were determined using an 11-point 3-fold compound dilution series with three DMSO control points. All compounds for Kd measurements are distributed by acoustic transfer (non-contact dispensing) in 100% DMSO. The compounds were then diluted directly into the assays such that the final concentration of DMSO was 0.9%. In case of % inhibition, test compounds were prepared as 40× stocks in 100% DMSO and directly diluted into the assay. All reactions performed in polypropylene 384-well plate. Each was a final volume of 0.02 ml. The assay plates were incubated at room temperature with shaking for 1 hour and the affinity beads were washed with wash buffer (1×PBS, 0.05% Tween 20). The beads were then re-suspended in elution buffer (1×PBS, 0.05% Tween 20, 0.5 μM non-biotinylated affinity ligand) and incubated at room temperature with shaking for 30 minutes. The kinase concentration in the eluates was measured by qPCR.
The CSF1R kinase binding activity results are shown in tables 1 (Kd) and 2 (percent inhibition at a concentration of 0.1 uM of compound to be tested).
Binding constants (Kds) were calculated with a standard dose-response curve using the Hill equation: […]
The Hill Slope was set to −1.
Curves were fitted using a non-linear least square fit with the Levenberg-Marquardt algorithm.
Binding % inhibition were calculated with as below:
[formula] • negative control=DMSO (100% Ctrl) • positive control=control compound (0% Ctrl)

[1] = read-out: CSF1R kinase binding activity, Percent (%) inhibition
[2] = read-out: CSF1R kinase binding activity, Range

Sequence of CSF1R (P07333 20-972): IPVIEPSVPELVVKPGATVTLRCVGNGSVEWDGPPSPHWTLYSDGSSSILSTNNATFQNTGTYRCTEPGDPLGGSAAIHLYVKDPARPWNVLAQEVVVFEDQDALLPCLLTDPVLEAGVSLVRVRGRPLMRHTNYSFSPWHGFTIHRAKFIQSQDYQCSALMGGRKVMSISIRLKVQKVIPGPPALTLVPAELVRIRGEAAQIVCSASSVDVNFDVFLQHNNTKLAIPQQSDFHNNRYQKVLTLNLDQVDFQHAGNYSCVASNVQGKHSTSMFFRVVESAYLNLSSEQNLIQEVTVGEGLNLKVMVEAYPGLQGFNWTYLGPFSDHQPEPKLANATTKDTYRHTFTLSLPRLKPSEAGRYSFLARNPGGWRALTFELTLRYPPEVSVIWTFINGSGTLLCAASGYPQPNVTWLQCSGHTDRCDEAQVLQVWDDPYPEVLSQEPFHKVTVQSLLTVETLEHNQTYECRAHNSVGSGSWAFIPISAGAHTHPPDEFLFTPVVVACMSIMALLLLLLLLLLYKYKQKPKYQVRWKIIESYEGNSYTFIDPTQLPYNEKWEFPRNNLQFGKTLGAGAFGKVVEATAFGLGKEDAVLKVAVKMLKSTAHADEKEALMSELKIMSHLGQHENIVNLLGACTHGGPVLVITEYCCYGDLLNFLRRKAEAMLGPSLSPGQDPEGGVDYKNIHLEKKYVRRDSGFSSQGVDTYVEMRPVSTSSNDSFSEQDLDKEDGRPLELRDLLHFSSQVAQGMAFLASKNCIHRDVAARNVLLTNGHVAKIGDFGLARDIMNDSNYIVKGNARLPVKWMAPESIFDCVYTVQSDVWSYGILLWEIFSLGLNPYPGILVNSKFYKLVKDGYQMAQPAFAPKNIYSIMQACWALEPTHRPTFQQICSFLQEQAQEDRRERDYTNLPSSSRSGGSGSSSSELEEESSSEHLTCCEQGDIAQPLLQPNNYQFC

| SMILES | Kd (Mer) [nM] | inhibition at 0.1 µM (CSF1R; [1]) [%] | inhibition at 0.1 µM (CSF1R; [2]) [%] | Kd (CSF1R) [nM] |
| --- | --- | --- | --- | --- |
| COc1cc2nccc(Oc3ccc(NC(=O)c4nn(C5CCNC5)cc4OCC(F)(F)F)nn3)c2cc1OC (centres unmarked) [Compound 122] | 100 to 500 | 19 | < 50 | – |
| COc1cc2nccc(Oc3ccc(NC(=O)c4nn(CCO)cc4OCC(F)(F)F)cn3)c2cc1OC [Compound 129] | 100 to 500 | 24 | < 50 | – |
| CNCCn1cc(OCC(F)(F)F)c(C(=O)Nc2ccc(Oc3ccnc4cc(OC)c(OC)cc34)c(C)c2)n1 [Compound 156] | 100 to 500 | 49 | < 50 | – |
| COc1cc2nccc(Oc3ccc(NC(=O)c4nn(C5CCN(C)C5)cc4OCC(F)(F)F)cn3)c2cc1OC (centres unmarked) [Compound 133] | 100 to 500 | 9 | < 50 | – |
| CNCCOc1cn(C2CC2)nc1C(=O)Nc1ccc(Oc2ccnc3cc(OC)c(OC)cc23)cn1 [Compound 141] | ≥ 500 | 23 | < 50 | – |
| CCCn1cc(OCC2CCOCC2)c(C(=O)Nc2ccc(Oc3ccnc4cc(OC)c(OC)cc34)cn2)n1 [Compound 164] | < 100 | 73 | 50 to 80 | – |
| COc1cc2nccc(Oc3ccc(NC(=O)c4nn(CC5COC5)cc4OCC(F)(F)F)cc3F)c2cc1OC [Compound 97] | < 100 | 56 | 50 to 80 | – |
| COc1cc2nccc(Oc3ccc(NC(=O)c4nn(CCOC5CC5)cc4OCC(F)(F)F)c(F)c3)c2cc1OC [Compound 115] | < 100 | 94 | ≥ 80 | – |
| COc1cc2nccc(Oc3ccc(NC(=O)c4nn(C5CC5)cc4OCCF)nn3)c2cc1OC [Compound 113] | < 100 | 82 | ≥ 80 | – |
| COc1cc2nccc(Oc3ccc(NC(=O)c4nn(CC5COC5)cc4OCC(F)(F)F)cc3C)c2cc1OC [Compound 99] | < 100 | 94 | ≥ 80 | – |
| COCCn1cc(OCC(F)(F)F)c(C(=O)Nc2ccc(Oc3ccnc4cc(OC)c(OC)cc34)nc2)n1 [Compound 104] | < 100 | 46 | < 50 | – |
| CNCCn1cc(OCC(F)(F)F)c(C(=O)Nc2ccc(Oc3ccnc4cc(OC)c(OC)cc34)nn2)n1 [Compound 127] | ≥ 500 | 38 | < 50 | – |
| COCCn1cc(OCC(F)(F)F)c(C(=O)Nc2ccc(Oc3ccnc4cc(OC)c(OC)cc34)nn2)n1 [Compound 126] | < 100 | 78 | 50 to 80 | – |
| COc1cc2nccc(Oc3ccc(NC(=O)c4nn(CC5COC5)cc4OCC(F)(F)F)cn3)c2cc1OC [Compound 134] | < 100 | 18 | < 50 | – |
| COc1cc2nccc(Oc3ccc(NC(=O)c4nn(CC(C)O)cc4OCC(F)(F)F)cn3)c2cc1OC (centres unmarked) [Compound 136] | < 100 | 23 | < 50 | – |
| COc1cc2nccc(Oc3ccc(NC(=O)c4nn(C5CC5)cc4OCC(F)(F)F)nn3)c2cc1OC [Compound 112] | < 100 | 97 | ≥ 80 | – |

The next lines start with the values.

| Kd (Mer) [nM] | inhibition at 0.1 µM (CSF1R; [1]) [%] | inhibition at 0.1 µM (CSF1R; [2]) [%] | Kd (CSF1R) [nM] | SMILES |
| --- | --- | --- | --- | --- |
| < 100 | 93 | ≥ 80 | – | COc1cc2nccc(Oc3ccc(NC(=O)c4nn(CCOC5CC5)cc4OCC(F)(F)F)cc3)c2cc1OC [Compound 118] |
| < 100 | 98 | ≥ 80 | – | COc1cc2nccc(Oc3ccc(NC(=O)c4nn(C5CC5)cc4OCCF)nc3)c2cc1OC [Compound 110] |
| < 100 | 94 | ≥ 80 | – | COc1cc2nccc(Oc3ccc(NC(=O)c4nn(CCOC5CC5)cc4OCC(F)(F)F)cc3C)c2cc1OC [Compound 117] |
| < 100 | 45 | < 50 | – | COc1cc2nccc(Oc3ccc(NC(=O)c4nn(CC5COC5)cc4OCC(F)(F)F)cc3)c2cc1OC [Compound 101] |
| < 100 | 87 | ≥ 80 | – | COc1cc2nccc(Oc3ccc(NC(=O)c4nn(C)cc4OCC(F)(F)F)nn3)c2cc1OC [Compound 102] |
| < 100 | 98 | ≥ 80 | – | COc1cc2nccc(Oc3ccc(NC(=O)c4nn(C5CC5)cc4OCC(F)F)nc3)c2cc1OC [Compound 109] |
| < 100 | 41 | < 50 | – | COc1cc2nccc(Oc3ccc(NC(=O)c4nn(CCOC5CC5)cc4OCC(F)(F)F)cn3)c2cc1OC [Compound 130] |
| < 100 | 95 | ≥ 80 | – | CCCn1cc(OCC2COC2)c(C(=O)Nc2ccc(Oc3ccnc4cc(OC)c(OC)cc34)cn2)n1 [Compound 106] |
| < 100 | 93 | ≥ 80 | – | COc1cc2nccc(Oc3ccc(NC(=O)c4nn(CCOC5CC5)cc4OCC(F)(F)F)cc3F)c2cc1OC [Compound 116] |
| < 100 | 47 | < 50 | – | CNCCn1cc(OCC(F)(F)F)c(C(=O)Nc2ccc(Oc3ccnc4cc(OC)c(OC)cc34)cc2F)n1 [Compound 154] |
| < 100 | 88 | ≥ 80 | < 100 | CNCCn1cc(OCC(F)(F)F)c(C(=O)Nc2ccc(Oc3ccnc4cc(OC)c(OC)cc34)cn2)n1 [Compound 11] |
| < 100 | 97 | ≥ 80 | < 100 | CCn1cc(OC(C)C)c(C(=O)Nc2ccc(Oc3ccnc4cc(OC)c(OC)cc34)cn2)n1 [Compound 6] |
